Laboratory results reported in ChEMBL document CHEMBL3507680, “University of Dundee, Gates Library screen for HepG2 cell viability”.

Assay: Human HepG2 cell viability assay in 384 well format
Type: toxicity, cell-based
Set-up: dose 125 nL, time 70.5 hour; cytotoxicity at 70.5 h: concentration not given beside the values
Conditions: HepG2 cells, read-out: Inhibition

Compound	cytotoxicity at 70.5 h
CC(=O)Nc1nc(C(=O)N2CCCC2c2noc(C)n2)cs1 (centres undefined)	6.71%
O=C(NCCc1ccn(-c2ccc(F)cc2)n1)C1CCCO1 (centres undefined)	-5.68%
CN1CCN(c2cc(NC(=O)Cn3ccc4ccccc43)ncn2)CC1	1.47%
CC(c1ccon1)N(C)C(=O)C1CCN(CC(N)=O)CC1 (centres undefined)	18%
COCCCn1c(CN2CCSCC2)cnc1S(=O)(=O)C1CCCC1	-2.29%
Cc1c(C2NC3(CCCC3)C(=O)N2CC2CC2)cc(C#N)n1C (centres undefined)	-8.72%
Cc1ccsc1CNC(=O)N1CCC(Cc2cnn(C)c2)C1 (centres undefined)	-3.88%
CCn1nc(C)c(NC(=O)CN2CC[C@H](CO)[C@@H](O)C2)c1C	-11.7%
CCS(=O)(=O)CC(=O)NC(C)c1ccc(OCCC(C)C)cc1 (centres undefined)	-1.31%
Cn1ccnc1SCC(=O)NCCC1CCCO1 (centres undefined)	31.2%
COc1ccc(NS(=O)(=O)c2cnc(NC(C)=O)s2)cc1	-8.08%
CS(=O)(=O)NC1CCN(C(=O)CCC2CCCO2)CC1 (centres undefined)	-0.0133%
O=C(NC1CC1)N1CCOCC2(CCN(Cc3cccs3)C2)C1 (centres undefined)	-16%
CCCS(=O)(=O)N1CCC2(CC(=O)N(c3cnn(C)c3)C2)C1 (centres undefined)	-7.78%
COc1cccc(CN2CCCCCC2c2cccs2)c1OC (centres undefined)	-10.1%
Cc1nc(CN2CCC3(CCN(C(=O)c4ccoc4C)CC3)C2)cs1	-6.97%
CCn1cc(CN2CCN(C(=O)c3cc(C)c(C)s3)CC2)c(C)n1	-10.4%
Cc1cc(C)c(C(=O)N2CCC3(CCCNC3)C2)cc1C (centres undefined)	25.6%
CCc1sc(-c2nnc(CNC(C)Cn3cccn3)o2)cc1C (centres undefined)	-11.3%
FC(F)(F)Cn1nnnc1SCCN1CCCCC1	-7.69%
CC(C)NC(=O)NC[C@H]1C[C@@H]2CCN1C[C@@H]2CN(C)c1ccccc1	-0.173%
COCCC(=O)NCC1Cn2nnc(-c3cccc(F)c3)c2CO1 (centres undefined)	-0.67%
Cc1nc([C@H]2C[C@@H]3CCN(Cc4ccc5c(c4)OCO5)C[C@H]3O2)no1	-12.3%

Compound	cytotoxicity at 70.5 h
Cn1nc(CNC(=O)C2COc3ccccc3O2)cc1C1CC1 (centres undefined)	6.17%
COc1ccnc(N2CCN(C(=O)N3CCOCC3)CC2)n1	-10.7%
CC(C)C(=O)NC(Cc1cc(N(C)C)nc(C2CC2)n1)c1ccccc1 (centres undefined)	3.43%
NC(=O)C1CCN(C(=O)CCSCc2ccccc2)CC1	-5.5%
COCCNc1nc2c(c(NCc3cnc(C)cn3)n1)CCNCC2	-4.71%
CCn1cncc1Cn1ncc2ccccc2c1=O	-7.38%
O=C(NCCn1nc(C2CCNC2)c2cccnc21)C1CC1 (centres undefined)	-1.28%
COc1ccccc1N1CCC(CNS(=O)(=O)c2cccc(C#N)c2)C1 (centres undefined)	22.7%
CCC(Oc1ccc(N(C)S(C)(=O)=O)cc1)C(N)=O (centres undefined)	-5.31%
Cn1cnnc1C1CCCN(C(=O)NCc2ccccc2)C1 (centres undefined)	1.38%
Cc1cnc(C(=O)N2CCN(Cc3csc(C)n3)CC2)cn1	-6.71%
CC(=O)NCC(=O)N1CCn2cc(CN3CCCCC3)nc2C1	-1.68%
COc1ccc(CCN(C)C(=O)c2cc(C(C)=O)c[nH]2)cc1OC	-11.9%
CC(C)NC(=O)CN1CCC(c2cccc(F)c2)C1 (centres undefined)	22.8%
CCS(=O)(=O)N1C[C@H](c2nc(C)no2)C[C@H]2OCC[C@H]21	5.21%
Cc1nc2c(c(C)c1CC(=O)NCc1cccs1)c(=O)[nH]n2C	-1.43%
O=C1CN(Cc2nnc(-c3ccc(Cl)cc3)o2)CCN1	-9.87%
CC(C)c1cn(CC(=O)NC2CC(=O)N(CCc3ccccc3)C2)nn1 (centres undefined)	-3.95%
Cc1cc(N2CCN(c3nc4ccccc4cc3CO)CC2)nc(C)n1	-9.44%
Cc1nnc2n1CCN(C(=O)c1cc(Cl)c(Cl)n1C)C2	-3.86%
Cc1nn(C)c(N2CCOCC2)c1CNCc1ccc(CO)c(F)c1	-0.89%
CCc1nc(N)nc(NCCC(=O)NC2CCCCC2)c1C	-3.68%
CCN1CCC[C@@H]1CNC(=O)c1cc(COc2ccccc2)[nH]n1	-1.42%

Compound	cytotoxicity at 70.5 h
NC(=O)CN1CCC(NC(=O)COCCOc2ccccc2)CC1	-4.83%
CS(=O)(=O)Nc1ccc(-n2c(CCCO)nc3ccccc32)cn1	0.667%
CC(NC(=O)c1cc(=O)n(C)c(=O)n1C)c1ccccc1-n1cccn1 (centres undefined)	4.9%
CCC1(CO)CCN(C(=O)c2cc(COc3ccccc3F)[nH]n2)CC1	15.1%
CC(C(=O)N1CCc2sccc2C1)N1CCC(N2CCCC2)CC1 (centres undefined)	0.91%
Cn1ncc(C(=O)N2CCN(CCS(C)(=O)=O)CC2)c1Cl	18.4%
CN(C)C(=O)CN1C[C@H]2CCN(C(=O)c3ccncc3)CC[C@H]2S1(=O)=O	-3.99%
N#Cc1ccc(Nc2nc3c(s2)C(=O)CN(CC2CC2)C3)cc1	-4.09%
CCS(=O)(=O)Nc1ccc2[nH]c(C3CCC3)nc2c1	-6.11%
NC(=O)CN1CCCC(C(=O)N2CCC(O)(c3ccccc3)CC2)C1 (centres undefined)	31%
Cc1ccc(CN2Cc3cnn(C)c3C(COCC3CC3)C2)o1 (centres undefined)	2.56%
CCN(CC(=O)N(C)C)C(=O)c1nc(C)n(-c2ccccc2Cl)n1	-0.577%
Cc1cccc2c1nc1n2[C@@H](CNC(=O)CCC(=O)O)COC1	-4.85%
O=C(Nc1ccccc1)C1=NOC2(CCCN(C(=O)N3CCCC3)C2)C1 (centres undefined)	-0.586%
COCc1noc(Cc2cc(Cl)c3c(c2)OCCCO3)n1	-4.84%
Cc1cc(N(C)C)nc(N2CCn3c(C)nnc3C2)n1	-17.7%
N#Cc1cccc(S(=O)(=O)CCN2CCOC2=O)c1	-8.07%
c1cnc(N2CC[C@@H]3CN(Cc4ccncc4)CCO[C@@H]3C2)nc1	-2.03%
O=C(CC(SC1CCCCC1)C(=O)O)c1ccc(Cl)cc1 (centres undefined)	-4.64%
CC(NCC(=O)N(C)C1CC1)c1ccc(S(C)(=O)=O)c(F)c1 (centres undefined)	-9.06%
OC(COCc1ccc(Cl)cc1)CN1CCC(c2ccn[nH]2)CC1 (centres undefined)	-1.37%
Cc1nc(CNC(=O)NC(C)c2ccc3c(c2)OCCO3)cs1 (centres undefined)	53.9%
COc1cc(C)nc(N2CCN(C(=O)CCn3cc(C)cn3)CC2)n1	-0.584%

Compound	cytotoxicity at 70.5 h
CC(=O)c1cc(CN2CCCCC2c2nc3cc(F)ccc3[nH]2)cs1 (centres undefined)	-5.07%
COc1ccc(C(=O)N2CCN(C(=O)c3csc(C(C)C)n3)CC2)cc1	28%
COc1ccc(CN(C)C(=O)CCc2c(C)nc(C)[nH]c2=O)cc1OC	-7.96%
CCOc1ncnc2c1CCN(C(=O)c1ccncc1F)CC2	-3.16%
CC(=O)Nc1nc(CN2CCCC2c2cnn(C)c2)cs1 (centres undefined)	31.4%
Cc1cc(C(F)(F)F)nn1C(C)C(=O)NN1CCN(C)CC1 (centres undefined)	18.4%
Cc1nc(CNCc2ccc(N3CCN(C)CC3)nc2)cs1	16.7%
Cn1cc(CN2CCCC23CCN(C(=O)c2ccncc2)CC3)cn1	20.3%
CCOc1c(CNCCCn2ccnc2)cc(Cl)cc1OC	-5.3%
Cc1nc(C)c(CC(=O)N2CCN(CC(C)C)CC2)c(=O)[nH]1	2.2%
O=C(NCCC(=O)N1CCCC1)c1ccc(SCc2cccnc2)cc1	-8.9%
O=C(NC1CC1)C(c1ccccc1)N1CCn2c(nnc2C2CC2)C1 (centres undefined)	1.07%
CCN1CCCC(O)(CNCc2ccccc2F)C1 (centres undefined)	12.4%
O=C(NC[C@@]1(COc2cnccn2)C[C@@H](O)[C@@H](O)C1)C1CCCC1	10.3%
CC(C)CC(=O)N1CCN(Cc2csc(-c3ncccn3)n2)CC1	-5.3%
CCOc1ccc(Cl)c(C(=O)N2CCCN(CC(N)=O)CC2)n1	-12%
Cc1nc(CN2CCC(CNC(=O)CCC3CCCC3)CC2)oc1C	-2.1%
CN(C)C(=O)N1CCC(c2nc3ccc(-c4ccccc4)cn3n2)CC1	-4.01%
O=C(c1cc2ccccc2[nH]1)N1CCC(Nc2cccnn2)CC1	-6.88%
O=C(CN1CCN(CCO)CC1)NC(C1CC1)C1CC1	-5.18%
CCOC(=O)CN(C)Cc1cnc(C)s1	7.03%
CCn1c(CN(C)Cc2cnc(C)s2)nc2cc(F)ccc21	10.8%
c1ccc(NCc2cn3c(n2)CN(Cc2cccnc2)CC3)nc1	-10%

Compound	cytotoxicity at 70.5 h
COc1ccc(OCCCNCCn2cccn2)cc1	22.8%
Cc1sc(C(=O)N(C)S(C)(=O)=O)cc1-c1ccc(F)cc1	-2.76%
O=C(c1ccn[nH]1)N1CCCC(n2cncn2)C1 (centres undefined)	5.61%
Cc1cccc(S(=O)(=O)NC(=O)c2ccc3c(c2)nnn3C)c1	-5.75%
Cc1nc2c(C#N)cnn2c(C)c1CCC(=O)N(C)C1CC1	8.54%
CCS(=O)(=O)N1CCc2ccc(NC(=O)NC3CCCCC3)cc21	-7.09%
O=C(O)c1cccnc1N1CCN(Cc2ccc(F)cc2)C(CCO)C1 (centres undefined)	22.4%
COCCOc1ccc(CNc2nc3ccccc3nc2N)cn1	-3.46%
CN(CCO)CC1COCCN1C(=O)C1CCCCC1 (centres undefined)	-14.2%
CN1CCNC(=O)C12CCN(C(=O)c1ccc3[nH]c(=O)[nH]c3c1)CC2	-7.66%
CN(C)c1ncccc1CNS(=O)(=O)c1cc(F)ccc1F	-11.5%
Clc1ccccc1-c1cc(CNc2ncnc3c2CCNCC3)no1	12.2%
CC(C)c1cc(C(=O)N(C)C(C)c2nccs2)no1 (centres undefined)	-7.34%
CN1CCOC[C@H]1c1nc(-c2cccnc2)c[nH]1	-7.84%
CCc1nc(CN2CCOC(CNc3cccnn3)C2)cs1 (centres undefined)	10.3%
Cc1n[nH]c(C)c1S(=O)(=O)N1CCC(Oc2ccccc2F)CC1	-7.37%
CC(C)C(C(=O)N1CCN(Cc2ccncc2)CC1)n1cncn1 (centres undefined)	-9.68%
CCc1nsc(N2CCN(Cc3ccno3)CC2)n1	-0.144%
CCN1C[C@H]2CCN(C(=O)Nc3ccccc3C)CC[C@H]2S1(=O)=O	15.6%
CC(C)CN(Cc1ccc(O)c(C(=O)O)c1)Cc1cnn(C)c1	-1.34%
COCCC(=O)N1CCC2(CCN(Cc3cccc(F)c3)C2)C1 (centres undefined)	24.8%
c1ccc2c(NC3CCc4ncnn4C3)ncnc2c1 (centres undefined)	-4.29%
